Columns and labels:
Type in all cases: biochemical
gelatinase A (MMP-2) = target: T1, gelatinase A (MMP-2) (Homo sapiens, UniProt P08253); experiment: MMP-2 enzyme inhibition assay (coumarin-labelled peptide substrate); conditions: read-out: IC50 MMP2
T1 sequence (P08253 110-660): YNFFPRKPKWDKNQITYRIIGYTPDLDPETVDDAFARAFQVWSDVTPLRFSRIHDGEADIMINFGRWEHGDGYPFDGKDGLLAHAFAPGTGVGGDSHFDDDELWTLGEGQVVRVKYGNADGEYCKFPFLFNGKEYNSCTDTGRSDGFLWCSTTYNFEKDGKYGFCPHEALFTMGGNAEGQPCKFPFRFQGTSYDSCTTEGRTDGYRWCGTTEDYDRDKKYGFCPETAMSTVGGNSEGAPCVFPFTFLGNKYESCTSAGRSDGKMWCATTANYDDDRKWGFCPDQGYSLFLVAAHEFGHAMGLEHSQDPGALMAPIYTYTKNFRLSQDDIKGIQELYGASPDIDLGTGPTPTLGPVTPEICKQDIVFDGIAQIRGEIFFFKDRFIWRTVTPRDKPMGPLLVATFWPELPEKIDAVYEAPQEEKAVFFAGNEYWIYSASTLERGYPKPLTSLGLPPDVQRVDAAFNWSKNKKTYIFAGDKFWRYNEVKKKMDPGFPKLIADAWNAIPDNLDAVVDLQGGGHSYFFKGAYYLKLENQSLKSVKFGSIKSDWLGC
Protocol: Compounds of the invention were tested to assess their activities as inhibitors of MMP-1, MMP-2, MMP-9, MMP-14, MMP-12 and TACE. MMP-9 Assay Protocol […]
(§1) Stock solutions were made up as follows: Assay Butter: 100 mM Tris-HCl pH 7.6 containing 100 mM NaCl, 10 mM CaCl2, and 0.05% Brij 35.
Substrate: 0.4 mM McaPLGLDpaAR (from Bachem) (0.437 mg/ml) stock solution in 100% DMSO (stored at −20° C.). Dilute to 8 μM in assay butter. […]
(§2) Test Compounds were prepared initially as 10 mM compound solution in 100% DMSO, diluted to 1 mM in 100% DMSO, then serially diluted 3-fold in 100% DMSO across columns 1-10 of a 96-well microtitre plate Assay concentration range, 100 μM (column 1) to 5.1 nM (column 10).
(§3) The assay was performed in a total volume of 100 μL per well in 96-well microtitre plates. Activated enzyme (20 μL) was added to the wells followed by 20 μL of assay butter. Appropriate concentrations of test compounds dissolved in 10 μL of DMSO were then added followed by 50 μL of McaPLGLDpaAR (8 μM, prepared by dilution of DMSO stock in assay butter). For each as say ten concentrations of test compound were examined in duplicate. Control wells lack either enzyme or test compound. The reactions were incubated at 37° C. for 2 hours. The fluorescence at 405 nm was measured immediately with an SLT Fluostar fluorometer (SL T Labinstruments GmbH, Grödig, Austria) using 320 nm excitation, without stopping the reaction.
(§4) The effect of the test compound was determined from the dose response curve generated by the 10 duplicate concentrations of inhibitor. The IC50 (the concentration of compound required to give a 50% decrease in enzyme activity) was obtained by fitting data to the equation, Y=a+((b−a)/(1+(c/X)^d)). (Y=inhibition achieved for a particular dose; X=the dose in nM; a=minimum y or zero % inhibition; b=maximum y or 100% inhibition; c=is the IC50; d=is the slope). The result was rounded to one significant figure.
Compounds of the invention were tested for inhibitory activity against gelatinase A (MMP-2) in an assay using a coumarin-labelled peptide substrate, (7-methoxycoumarin-4-yl)acetyl-Pro-Leu-Gly-Leu-(3-[2,4-dinitrophenyl]-L-2,3diaminopropionyl)-Ala-Arg-NH2 (Mca PLGLDpaAR) (Knight et al, 1992, above). The protocol for this assay was as described for the MMP-9 assay above.

human ADAM17 (TACE) = human ADAM17 (TACE) (Homo sapiens, UniProt P78536); experiment: TACE enzyme inhibition assay
Protocol: (§5) Compounds of the invention were tested to assess their activities as inhibitors of MMP-1, MMP-2, MMP-9, MMP-14, MMP-12 and TACE. MMP-9 Assay Protocol
Compounds of the invention can be tested for inhibitory activity against human ADAM17 in an assay using human Mca-(endo-1a-Dap(Dnp)-TNF-alpha(−5 to +6)amide as substrate (FEBS Letters, 2000, 275-279).
Stock solutions are prepared as followed: • Assay Buffer: 20 mM Hepes pH 7.5 (Fluka) containing 0.05% Brij 35 (Fluka) • Substrate: 6.1 mM human Mca-(endo-1a-Dap(Dnp)-TNF-alpha(−5 to +6)amide (Bachem) stock solution in 100% DMSO (stored at −20° C.); diluted to 5 μM in assay buffer. • Enzyme: Recombinant human ADAM17, appropriately diluted in assay buffer (1.5 μg/ml).
Test Compounds are prepared initially as 10 mM compound solution in 100% DMSO, diluted to 1 mM in 100% DMSO, then serially diluted 3-fold in 100% DMSO across a 96-well microtitre plate. Assay concentration range is typically between 100 μM to 0.01 nM. The assay is performed in a total volume of 100 μL per well in 96-well microtitre plates. Appropriate concentrations of test compounds dissolved in 10 μL of DMSO are added to the wells, followed by substrate solution (50 μL, 5 μM prepared by dilution of DMSO stock in assay buffer) and enzyme solution (40 μL). For each as say ten concentrations of test compound are examined in […]. Control wells lack either enzyme or test compound. The reactions are incubated at room temperature for 1.5 hours. The fluorescence at 405 nm is measured immediately with a fluorometer using 355 nm excitation, without stopping the reaction.
as §4, with “is” for “was”

[1] = target: 92 kDa gelatinase (MMP-9) (Homo sapiens, UniProt P14780); experiment: MMP-9 enzyme inhibition assay (coumarin-labeled peptide substrate); conditions: for IC50: read-out: IC50 MMP9
Protocol: as §5
Compounds of the invention were tested for inhibitory activity against 92 kDa gelatinase (MMP-9) in an assay using a coumarin-labeled peptide substrate, (7-methoxycoumarin-4-yl)acetyl-Pro-Leu-Gly-Leu-(3-[2,4-dinitrophenyl]-L-2,3diaminopropionyl)-Ala-Arg-NH2 (McaPLGLDpaAR) (Knight et al, FEBS Lett. 1992; 263-266).
as §1
Substrate: 0.4 mM McaPLGLDpaAR (from Bachem) (0.437 mg/ml) stock solution in 100% DMSO (stored at −20° C.). Dilute to 8 μM in assay butter.
Enzyme: Recombinant human 92 kDa gelatinase (MMP-9; APMA (4-aminophenyl mercuric acetate)-activated if necessary) appropriately diluted in assay butter.
as §2, §3, §4

Chain of human ADAM17 (TACE) (P78536 215-824): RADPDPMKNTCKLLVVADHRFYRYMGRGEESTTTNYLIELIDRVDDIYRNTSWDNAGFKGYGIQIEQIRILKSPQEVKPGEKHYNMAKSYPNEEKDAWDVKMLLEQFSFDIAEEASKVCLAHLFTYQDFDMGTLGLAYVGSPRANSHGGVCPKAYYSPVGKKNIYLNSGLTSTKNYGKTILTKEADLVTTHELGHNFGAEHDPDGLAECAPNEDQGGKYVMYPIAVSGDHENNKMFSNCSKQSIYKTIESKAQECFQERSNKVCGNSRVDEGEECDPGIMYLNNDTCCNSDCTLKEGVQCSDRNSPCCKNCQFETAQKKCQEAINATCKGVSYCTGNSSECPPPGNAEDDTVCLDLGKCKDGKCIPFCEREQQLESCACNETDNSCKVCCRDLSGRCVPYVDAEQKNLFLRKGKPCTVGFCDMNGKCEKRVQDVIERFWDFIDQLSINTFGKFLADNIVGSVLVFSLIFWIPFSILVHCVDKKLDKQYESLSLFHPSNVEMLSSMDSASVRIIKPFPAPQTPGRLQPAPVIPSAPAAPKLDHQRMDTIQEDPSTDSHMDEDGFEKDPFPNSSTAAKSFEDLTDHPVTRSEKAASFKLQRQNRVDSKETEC
Chain of 92 kDa gelatinase (MMP-9) (P14780 107-707 limits assumed): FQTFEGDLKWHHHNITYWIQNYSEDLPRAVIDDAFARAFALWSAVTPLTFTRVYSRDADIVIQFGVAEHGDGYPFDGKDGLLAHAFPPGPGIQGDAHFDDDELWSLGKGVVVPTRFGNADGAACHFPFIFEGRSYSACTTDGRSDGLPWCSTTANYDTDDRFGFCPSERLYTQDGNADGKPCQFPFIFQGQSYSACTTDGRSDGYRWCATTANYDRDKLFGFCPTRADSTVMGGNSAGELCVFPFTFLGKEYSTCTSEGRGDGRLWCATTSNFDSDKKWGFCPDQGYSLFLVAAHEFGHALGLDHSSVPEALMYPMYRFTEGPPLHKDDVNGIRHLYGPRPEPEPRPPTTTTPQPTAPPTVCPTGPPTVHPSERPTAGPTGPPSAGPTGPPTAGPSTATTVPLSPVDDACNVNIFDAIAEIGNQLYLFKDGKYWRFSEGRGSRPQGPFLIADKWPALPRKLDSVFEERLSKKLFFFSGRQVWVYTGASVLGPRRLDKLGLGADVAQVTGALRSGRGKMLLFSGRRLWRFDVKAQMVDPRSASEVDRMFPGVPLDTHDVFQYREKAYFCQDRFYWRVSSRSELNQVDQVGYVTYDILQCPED

SMILES	IC50 (gelatinase A (MMP-2)) [µM]	IC50 (human ADAM17 (TACE)) [µM]	inhibition at 5 µM ([1]; @ 5 μM, read-out: percentage inhibition MMP9) [%]	IC50 [1] [µM]
CC(C)(C)OC(=O)N1CCC[C@@H]1[C@@H](CS(=O)(=O)N1CCc2cc(Cl)c(Cl)cc2C1)N(O)C=O (racemic) [Example 44, tert-butyl (2RS)-2-{(1SR)-2-[(6,7-dichloro-3,4-dihydro-isoquinolin-2(1H)-yl)sulfonyl]-1-[formyl(hydroxy)amino]ethyl}pyrrolidine-1-carboxylate]	0.091	0.371	21	
COc1cc2c(cc1OC)CN(S(=O)(=O)CC([C@H]1COC(C)(C)O1)N(O)C=O)CC2 (stereo partly drawn) [Example 14, N-{2-[(6,7-dimethoxy-3,4-dihydroisoquinolin-2(1H)-yl)sulfonyl]-1-[(4S)-2,2-dimethyl-1,3-dioxolan-4-yl]ethyl}-N-hydroxyformamide]	> 5	0.62		> 5
CC1(C)OC[C@H](C(CS(=O)(=O)N2Cc3ccccc3C2)N(O)C=O)O1 (stereo partly drawn) [Example 16, N-{2-(1,3-dihydro-2H-isoindol-2-ylsulfonyl)-1-[(4S)-2,2-dimethyl-1,3-dioxolan-4-yl]ethyl}-N-hydroxyformamide]	0.078	0.311		> 5
CC(C)c1ccc2c(c1)CCN(S(=O)(=O)CC([C@H]1COC(C)(C)O1)N(O)C=O)C2 (stereo partly drawn) [Example 18, N-{1-[(4S)-2,2-dimethyl-1,3-dioxolan-4-yl]-2-[(6-isopropyl-3,4-dihydroisoquinolin-2(1H)-yl)sulfonyl]ethyl}-N-hydroxyformamide]	0.005	0.64		> 5
CC1(C)OC[C@H](C(CS(=O)(=O)N2CCc3ccc(Cl)cc3C2)N(O)C=O)O1 (stereo partly drawn) [Example 19, N-{2-[(7-chloro-3,4-dihydroisoquinolin-2(1H)-yl)sulfonyl]-1-[(4S)-2,2-dimethyl-1,3-dioxolan-4-yl]ethyl}-N-hydroxyformamide]	0.01	0.023		> 5
O=CN(O)C(CS(=O)(=O)N1CCc2ccc(Cl)cc2C1)C1CCCC1 (stereo not drawn) [Example 21, N-{2-[(7-chloro-3,4-dihydroisoquinolin-2(1H)-yl)sulfonyl]-1-cyclopentylethyl}-N-hydroxyformamide]	0.103	0.056		> 5
O=CN(O)[C@@H](CS(=O)(=O)N1CCc2ccc(Cl)cc2C1)[C@H]1CCCO1 [Example 22, N-{(1R)-2-[(7-chloro-3,4-dihydroisoquinolin-2(1H)-yl)sulfonyl]-1-[(2R)-tetrahydrofuran-2-yl]ethyl}-N-hydroxyformamide]	0.47	0.389		> 5

The remaining lines, values ahead:

IC50 (gelatinase A (MMP-2)) [µM]	IC50 (human ADAM17 (TACE)) [µM]	inhibition at 5 µM ([1]; @ 5 μM, read-out: percentage inhibition MMP9) [%]	IC50 [1] [µM]	SMILES
0.095	0.067		> 5	O=CN(O)C(CCc1ccccc1)CS(=O)(=O)N1CCc2ccccc2C1 (stereo not drawn) [Example 1, N-{1-[(3,4-dihydroisoquinolin-2(1H)-ylsulfonyl)methyl]-3-phenylpropyl}-N-hydroxyformamide]
0.53	0.033		> 5	CC1(C)OC[C@H](C(CS(=O)(=O)N2CCc3ccccc3C2)N(O)C=O)O1 (stereo partly drawn) [Example 2, N-{2-(3,4-dihydroisoquinolin-2(1H)-ylsulfonyl)-1-[(4S)-2,2-dimethyl-1,3-dioxolan-4-yl]ethyl}-N-hydroxyformamide]
0.676	0.028		> 5	CCCCCC(CS(=O)(=O)N1CCc2ccccc2C1)N(O)C=O (stereo not drawn) [Example 3, N-{1-[(3,4-dihydroisoquinolin-2(1H)-ylsulfonyl)methyl]hexyl}-N-hydroxyformamide]
0.653	0.114		> 5	O=CN(O)C(CS(=O)(=O)N1CCc2ccccc2C1)C1CC1 (stereo not drawn) [Example 4, N-[1-cyclopropyl-2-(3,4-dihydroisoquinolin-2(1H)-ylsulfonyl)ethyl]-N-hydroxyformamide]
0.323	0.28		0.877	O=CN(O)C(CCc1ccccc1)CS(=O)(=O)N1Cc2ccccc2C1 (stereo not drawn) [Example 6, N-{1-[(1,3-dihydro-2H-isoindol-2-ylsulfonyl)methyl]-3-phenylpropyl}-N-hydroxyformamide]
> 5	0.128		> 5	O=CN(O)C(CS(=O)(=O)N1CCc2ccccc2C1)c1cncnc1 (stereo not drawn) [Example 9, N-[2-(3,4-dihydroisoquinolin-2(1H)-ylsulfonyl)-1-pyrimidin-5-ylethyl]-N-hydroxyformamide]
> 5	0.067		> 5	O=CN(O)C(CS(=O)(=O)N1CCc2ccccc2C1)c1cccnc1 (stereo not drawn) [Example 10, N-[2-(3,4-dihydroisoquinolin-2(1H)-ylsulfonyl)-1-pyridin-3-ylethyl]-N-hydroxyformamide]
> 5	1.22		> 5	COc1cc2c(cc1OC)CN(S(=O)(=O)CC(CCc1ccccc1)N(O)C=O)CC2 (stereo not drawn) [Example 12, N-(1-{[(6,7-dimethoxy-3,4-dihydroisoquinolin-2(1H)-yl)sulfonyl]methyl}-3-phenylpropyl)-N-hydroxyformamide]
> 5	0.04		> 5	COc1ccc(C(CS(=O)(=O)N2CCc3ccccc3C2)N(O)C=O)cn1 (stereo not drawn) [Example 13, N-[2-(3,4-dihydroisoquinolin-2(1H)-ylsulfonyl)-1-(6-methoxypyridin-3-yl)ethyl]-N-hydroxyformamide]

Reference: patent US7879876B2, “Sulfonamide derivatives and use thereof for the modulation of metalloproteinases” (Merck Serono SA, priority 2005, dated 2011)
